Values after ≈ are worked out from the molar mass of the structure shown. Active and inactive are the calls of the source. No cut-off for these calls is given here.
Experiments:
[1] = tested on: Candida albicans; test: Antifungal activity against Candida albicans; assay type: functional, organism-based
[2] = tested on: Cryptococcus neoformans; test: Antifungal activity against Cryptococcus neoformans; assay type: functional, organism-based
[3] = tested on: Plasmodium falciparum; test: Antimalarial activity against Plasmodium falciparum D6; assay type: functional, organism-based
[4] = tested on: Plasmodium falciparum; test: Antimalarial activity against Plasmodium falciparum W2; assay type: functional, organism-based
[5] = tested on: Mycobacterium intracellulare; test: Antibacterial activity against Mycobacterium intracellular; assay type: functional
[6] = tested on: Vero; test: Cytotoxicity against african green monkey Vero cells; assay type: cell-based; conditions: chlorocebus sabaeus

O=CN(CCc1cnc[nH]1)c1cc[nH]c1 [SOLSODOMINE A]
Activity [1]: inactive
Activity [2]: inactive
Activity [3]: inactive
Activity [4]: inactive
MIC [5]: 10 µg/mL (≈ 49 µM)
Activity [6]: Not Active

CNCCCN(C=O)c1cc[nH]c1 [SOLSODOMINE B]
Activity [1]: inactive
Activity [2]: inactive
Activity [3]: inactive
Activity [4]: inactive
Activity [6]: Not Active
